According to publication PMC7203245, “Lacosamide intake during pregnancy increases the incidence of foetal malformations and symptoms associated with schizophrenia in the offspring of mice” (Scientific Reports, 2020):
Marks after values point to notes of the source that are not given here.

Key:
[1] = test system: developing embryos; assay: Embryo development at E14.5 after daily LCM administration to dams (litters, resorptions, litter size, malformations); type: in vivo, mice; conditions: for CR length (cm): crown-rump
Protocol: Thus, we used 10, 40, 80 and 120 mg/kg in mice, which corresponded to 56.7, 227, 454 and 681 mg/day in humans, considering an average weight of human to be 70 kg and that of mice to be 30 gr[52],[55]. Controls were administered the vehicle alone: saline solution 0.9% w/v. […] A total of 32 dams were initially treated daily, two days before mating and until the 14th day post-coitus. […] In the breastfeeding period, females were not under treatment given that a person will bottle feed the baby if they were on medication.
Maternal weights were assessed at the end of the treatment periods. After 14.5 days of gestation (embryonic day14.5, E14.5), blood was extracted from the orbital sinus of the pregnant dams under anaesthesia (70 mg/kg Thiobarbital: Braun Medical S.A. Spain), as described previously[56] and sacrificed by neck dislocation immediately after. Blood samples were centrifuged immediately, and the serum was collected and stored at -80 °C for further chemical analysis.
The E14.5 embryos were collected and fixed in 4% paraformaldehyde for 4 h and then kept at 4 °C in 70% ethanol. The litter size of each dam was recorded, and embryos were assessed for external malformations and photographed on a stereomicroscope (SteREO Discovery V8 + AxioCam Erc8, Zeiss, Oberkochen, Germany). The crown-rump lengths of embryos were measured in the photographs using ImageJ software (downloaded as a free software package from the public domain: http://rsb.info.nih.gov/ij/download.html) and based on the reference points described previously. Embryos were then embedded in paraffin, sectioned at 10, 7 and 5 μm, and stained with Ehrlich Haematoxylin & Eosin (H&E) for histology analysis. Representative sections were selected from at least three embryos for each condition and photographed on an Olympus (Tokyo, Japan) BX-61 photomicroscope.

[2] = test system: adult male mice; assay: Sociability test; type: in vivo
Protocol: All trials were performed by an experimenter blind to the drug treatment.
Sociability test. The social testing apparatus consisted of a rectangular arena (55 x 40 x 40 cm) in which a small, round wire cage (11 cm in height, with a bottom diameter of 9 cm, vertical bars 0.5 cm and horizontal bars spaced 1 cm apart) was placed in a corner, allowing nose contact between the bars but preventing fighting. The subject mouse was first placed in the arena for 5 minutes with the round wire cage empty. After that, a strange mouse was place in the round cage in […] and the subject was allowed to explore the entire social test box for 10 min. The time spent around the empty and occupied cage was measured with the aid of the camera fitted to the top of the box.

[3] = test system: pups; assay: Neonatal behavioural tests of Fox's battery (developmental landmarks, locomotion, reflexes); type: in vivo, mice; conditions: P1 to P13; dams given 40 or 120 mg/kg during gestation
Protocol: In this part of the study, dams were treated until the day of delivery. After analysing the embryo toxicity data, the treatments were categorized as controls (saline vehicle solution alone), low dose (40 mg/kg) and high dose (120 mg/kg). […] The day of birth was designated as postnatal day (P) P0 and the litter size delivered by each dam was recorded, checking each pup for gross abnormalities. Pups were nursed by their natural dams until weaning and from PD 2, the pups were weighed and neonatal behavioural tests were carried out on 12 control mice, 12 low dose and 10 high dose mice from 7 litters. […]
The animal was placed face up, and the time taken to turn over and adopt a prone position with all four feet on the ground was assessed. […]
A mouse was placed at the edge of the table, with its forepaws and head extending over the edge. The response was scored as positive if the mouse turned around and crawled away at least 45° from the “cliff”. […]
The animal was placed face down on a 30° incline and the latency to turn 180° was recorded. […]
The total number of degrees turned by the pup during a 30 s period was recorded. […] The number of degrees was only scored in terms of completed 90° segments.
The latency of a mouse to walk a distance exceeding its body length on all four legs was measured on a flat surface covered with green paper. […]

[4] = 10 mg/kg LCM daily i.p. to dams
[5] = 40 mg/kg LCM daily i.p. to dams
[6] = 80 mg/kg LCM daily i.p. to dams
[7] = 120 mg/kg LCM daily i.p. to dams
[8] = High doses (80 or 120 mg/kg LCM daily i.p. to dams)
[9] = High doses (80 or 120 mg/kg LCM daily i.p. to dams), mean ± S.E.M., p < 0.05
[10] = Low doses (10 or 40 mg/kg LCM daily i.p. to dams)

COC[C@@H](NC(C)=O)C(=O)NCc1ccccc1 [LCM, R-2-acetamido-N-benzyl-3-methoxypropionamide]
Emb (no.) [1, 4]: 117 no. | Lost Litter (no.) [1, 4]: 0 no. | Malformation (%) [1, 4]: 4.3% | Resorpt (%) [1, 4]: 4% | CR length (cm) [1, 4]: 1.18 cm | Emb (no.) [1, 5]: 67 no. | Lost Litter (no.) [1, 5]: 0 no. | Malformation (%) [1, 5]: 7.4% | Resorpt (%) [1, 5]: 1.5% | CR length (cm) [1, 5]: 1.09 cm | Emb (no.) [1, 6]: 41 no. | Lost Litter (no.) [1, 6]: 1 no. | Malformation (%) [1, 6]: 12.2% | Resorpt (%) [1, 6]: 0% | CR length (cm) [1, 6]: 1.03 cm | Emb (no.) [1, 7]: 73 no. | Lost Litter (no.) [1, 7]: 1 no. | Malformation (%) [1, 7]: 2.7% | Resorpt (%) [1, 7]: 2.5% | CR length (cm) [1, 7]: 1.08 cm | Emb (no.) [1, 8]: 114 no. | Lost Litter (no.) [1, 8]: 2 no. | Malformation (%) [1, 8]: 6.1% | Resorpt (%) [1, 8]: 1.75% | CR length (cm) [1, 9]: 1.06 ± 0.08^b cm | Emb/dam [1, 9]: 9.5 ± 0.4^b | Emb (no.) [1, 10]: 184 no. | Lost Litter (no.) [1, 10]: 0 no. | Malformation (%) [1, 10]: 5.4% | Resorpt (%) [1, 10]: 3.2% | CR length (cm) ([1]; Low doses (10 or 40 mg/kg LCM daily i.p. to dams), mean ± S.E.M.): 1.1 ± 0.1 cm | number of embryos/litter ([1]; high doses of LCM (80 or 120 mg/kg), p = 0.02): 9.5 ± 0.4 embryo/litter | number of embryos/litter ([1]; low doses of LCM (10 or 40 mg/kg)): 12.2 ± 0.1 embryos/litter | social interaction with a strange mouse (sniffing time) ([2]; 40 mg/kg in utero): 183.4 ± 11.01 s | social interaction with a strange mouse (sniffing time) ([2]; 120 mg/kg in utero): 172.0 ± 10.78 s | postnatal somatometric development and reflexological analyses (body weight, developmental landmarks, locomotor activity, balance reflexes, suspension test) [3]: dose-dependent delay
